# Where “and” joins values, the source holds several entries; their conditions need not be identical. Equal entries are not always repeated.
# Columns and labels:
# H3255 cells = assay: Anti-proliferation activity (MTS assay); type: cell-based; settings: Homo sapiens, NCI-H3255; H3255 lung cancer cells, 72 hours
# Method: MTS assay. […] Cell viability was assessed using the [3-(4,5-dimethylthiazol-2-yl)-5-(3-carboxymethoxyphenyl)-2-(4-sulfophenyl)-2H-tetrazolium inner salt (MTS) cell proliferation assay (Promega).
# EGFR [1] = biological target: T1, EGFR (Homo sapiens, UniProt P00533, L858R); assay: Live-cell labeling of H3255 cells by click probes (in-gel fluorescence); type: cell-based
# T1 construct: endogenous in cells; host or cells: H3255 human lung cancer cells
# T1 sequence (P00533 25-1210 L858R): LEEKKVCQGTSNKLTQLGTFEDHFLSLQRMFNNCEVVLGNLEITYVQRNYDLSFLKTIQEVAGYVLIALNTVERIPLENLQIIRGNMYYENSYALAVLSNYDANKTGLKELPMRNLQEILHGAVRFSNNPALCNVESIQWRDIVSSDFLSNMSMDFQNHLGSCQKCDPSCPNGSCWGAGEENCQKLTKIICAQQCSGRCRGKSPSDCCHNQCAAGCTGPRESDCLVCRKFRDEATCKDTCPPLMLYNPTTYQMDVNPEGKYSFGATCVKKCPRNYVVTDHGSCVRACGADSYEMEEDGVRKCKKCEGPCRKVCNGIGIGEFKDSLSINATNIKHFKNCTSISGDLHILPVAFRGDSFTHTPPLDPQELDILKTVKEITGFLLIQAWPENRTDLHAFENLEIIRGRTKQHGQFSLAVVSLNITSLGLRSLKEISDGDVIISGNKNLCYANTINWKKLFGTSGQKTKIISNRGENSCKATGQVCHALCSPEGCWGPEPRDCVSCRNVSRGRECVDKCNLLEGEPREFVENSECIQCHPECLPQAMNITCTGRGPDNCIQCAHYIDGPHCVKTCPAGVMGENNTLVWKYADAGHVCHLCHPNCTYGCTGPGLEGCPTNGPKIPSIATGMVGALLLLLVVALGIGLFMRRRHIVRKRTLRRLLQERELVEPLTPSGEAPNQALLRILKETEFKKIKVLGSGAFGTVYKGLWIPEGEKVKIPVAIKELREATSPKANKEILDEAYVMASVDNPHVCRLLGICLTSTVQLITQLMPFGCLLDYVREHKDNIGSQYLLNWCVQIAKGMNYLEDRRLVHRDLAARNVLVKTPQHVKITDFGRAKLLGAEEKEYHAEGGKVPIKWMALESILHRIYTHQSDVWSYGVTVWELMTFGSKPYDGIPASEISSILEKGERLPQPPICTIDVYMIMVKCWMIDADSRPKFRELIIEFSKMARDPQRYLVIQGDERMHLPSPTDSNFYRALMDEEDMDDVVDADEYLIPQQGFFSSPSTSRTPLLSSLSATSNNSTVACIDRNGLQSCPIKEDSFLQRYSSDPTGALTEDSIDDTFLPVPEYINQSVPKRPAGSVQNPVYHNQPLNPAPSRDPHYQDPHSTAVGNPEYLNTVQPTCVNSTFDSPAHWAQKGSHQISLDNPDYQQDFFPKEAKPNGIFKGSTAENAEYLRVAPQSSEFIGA
# Method: In-gel fluorescence analysis of cell labeling. Cell pellets were resuspended in Pierce IP lysis buffer (Thermo Scientific) supplemented with protease inhibitor cocktail (Thermo Scientific). After lysis on ice, the lysate was centrifuged at 2000 g, 4° C. for 2 min, and the supernatant was collected and normalized to 1.5 mg/mL with PBS. 40 μL of each sample was first blocked with iodoacetamide (15 mM, Sigma) for 30 min at room temperature in the dark, followed by click reaction with either DBCO-TMR or tetrazine-TMR (25 μM, Click Chemistry Tools) at room temperature for 30 min. The sample was then boiled in LDS sample buffer at 95° C. for 5 min, and resolved by 4-12% SDS-PAGE gel. Finally, the fluorescently labeled proteins were visualized with a ChemiDoc imaging system and subsequently stained with Bio-Safe Coomassie (Bio-Rad).
# EGFR [2] = assay: Multiplexed ExoSCOPE: drug occupancy in EVs secreted by drug-treated cells; type: cell-based, human; settings: heterogeneous cell mixture, 1 μM, within 24 hours, CD63/EGFR/EpCAM/MUC1 vesicle subpopulations
# Method: ExoSCOPE assay. We developed the ExoSCOPE assay for the direct analysis of both marker composition and drug occupancy in EVs. Samples were diluted 1:1 in PBS before ExoSCOPE analyses. We treated the diluted samples with click probe A3 (tagged with TCO, 100 nM) at 37° C. for 30 min before analysis. […] To measure EV marker composition (for a single marker analysis), we incubated the samples on antibody-functionalized ExoSCOPE sensors (1 μL, 10 min, room temperature), to achieve marker-specific EV capture. As a control experiment, sensors functionalized with IgG isotope control antibodies were used. Relative spectral changes (plasmonic signals) were measured to determine marker-specific EV binding. To measure EV drug occupancy, we used the click probes within sensor-bound vesicles to achieve enzymatic amplification. Specifically, we utilized the probes' click handles (TCO) to recruit tetrazine-conjugated horseradish peroxidase (HRP), which catalyzed in situ, enzymatic conversion of the soluble substrate (3,3′-diaminobenzidine, DAB) to form local, insoluble polymeric products on labeled vesicles; these insoluble deposits acted as optical products to amplify the plasmonic signals. […] Relative spectral changes were measured to determine probe labeling. […]
GI50 (H3255 cells),"signal-to-noise ratio of EGFR labeling among the click probes (EGFR [1]; 100 nM probe, with or without afatinib 1 μM)","incubation time to maximal labeling (EGFR [1]; probe 100 nM, H3255 cells)","live-cell EGFR labeling efficiency (EGFR [1]; probe 100 nM, H3255 cells, 15 min incubation)",SMILES,time-dependent change of ξEV (EGFR [2])
0.6 nM,,,,"CN(C)C/C=C/C(=O)Nc1cc2c(Nc3ccc(F)c(Cl)c3)ncnc2cc1O[C@H]1CCOC1 [afatinib, reference compound]",
1.8 nM,best signal-to-noise ratio,1 h,> 90% and 90%,"CN(C)C/C=C/C(=O)Nc1cc2c(Nc3ccc(F)c(Cl)c3)ncnc2cc1OCCCNC(=O)CNC(=O)OC1CC/C=C/CCC1 (stereo not drawn) [probe A3, (E)-cyclooct-4-en-1-yl (2-((3-((4-((3-chloro-4-fluorophenyl)amino)-6-((E)-4-(dimethylamino)but-2-enamido)quinazolin-7-yl)oxy)propyl)amino)-2-oxoethyl)carbamate]",
,,,,C#Cc1cccc(Nc2ncnc3cc(OCCOC)c(OCCOC)cc23)c1 [erlotinib],increased

# Source: patent US20240410876A1, “EXTRACELLULAR VESICLE DRUG ANALYSIS FOR REAL-TIME MONITORING OF TARGETED THERAPY” (NATIONAL UNIVERSITY OF SINGAPORE, priority 2021, published 2024)
